pIC50: −log10 of the molar value.

Test [1] has as its target Fibroblast growth factor receptor 2 (Homo sapiens) (UniProt P21802). As to the kind of experiment: Selectivity for Fibroblast growth factor receptor 2 over (KDR) kinase insert domain receptor.
The target of test [2] is Vascular endothelial growth factor receptor 2 (Homo sapiens, UniProt P35968). As to the kind of experiment: Inhibitory activity towards vascular endothelial growth factor receptor 2.
Test [3] addresses Fibroblast growth factor receptor 1 (Homo sapiens) (UniProt P11362). Description: Selectivity for Fibroblast growth factor receptor 1 over (KDR) kinase insert domain receptor.
Test [4] addresses Platelet-derived growth factor receptor beta (Homo sapiens) (UniProt P09619). Description: Selectivity for PDGFRbeta over (KDR) kinase insert domain receptor.
For test [5], the target named is Proto-oncogene tyrosine-protein kinase Src (Homo sapiens) (UniProt P12931). Description: Selectivity for Src protein tyrosine kinase over (KDR) kinase insert domain receptor.
Sequence of Proto-oncogene tyrosine-protein kinase Src (Homo sapiens) (P12931 2-536 limits assumed): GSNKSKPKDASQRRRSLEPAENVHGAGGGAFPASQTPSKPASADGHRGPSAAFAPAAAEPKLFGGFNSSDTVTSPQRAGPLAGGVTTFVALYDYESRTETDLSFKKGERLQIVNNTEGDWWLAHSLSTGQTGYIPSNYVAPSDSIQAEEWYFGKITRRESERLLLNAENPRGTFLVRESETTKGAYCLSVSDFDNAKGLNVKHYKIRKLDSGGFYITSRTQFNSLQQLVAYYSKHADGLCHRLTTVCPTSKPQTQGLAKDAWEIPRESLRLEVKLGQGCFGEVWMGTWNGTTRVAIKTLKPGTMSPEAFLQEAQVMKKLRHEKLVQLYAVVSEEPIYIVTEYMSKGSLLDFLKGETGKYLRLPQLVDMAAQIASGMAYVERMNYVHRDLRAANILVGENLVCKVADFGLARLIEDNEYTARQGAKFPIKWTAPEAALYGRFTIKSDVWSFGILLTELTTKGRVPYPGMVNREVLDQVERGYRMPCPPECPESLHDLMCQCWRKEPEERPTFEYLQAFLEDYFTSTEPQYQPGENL
In test [6] the target is Vascular endothelial growth factor receptor 1 (Homo sapiens) (UniProt P17948). As to the kind of experiment: Selectivity for Vascular endothelial growth factor receptor 1 over (KDR) kinase insert domain receptor.
Test [7] concerns the target Vascular endothelial growth factor receptor 3 (Homo sapiens) (UniProt P35916). As to the kind of experiment: Selectivity for Vascular endothelial growth factor receptor 3 over (KDR) kinase insert domain receptor.

Sequence of Platelet-derived growth factor receptor beta (Homo sapiens) (P09619 whole entry, the tested form may be a part): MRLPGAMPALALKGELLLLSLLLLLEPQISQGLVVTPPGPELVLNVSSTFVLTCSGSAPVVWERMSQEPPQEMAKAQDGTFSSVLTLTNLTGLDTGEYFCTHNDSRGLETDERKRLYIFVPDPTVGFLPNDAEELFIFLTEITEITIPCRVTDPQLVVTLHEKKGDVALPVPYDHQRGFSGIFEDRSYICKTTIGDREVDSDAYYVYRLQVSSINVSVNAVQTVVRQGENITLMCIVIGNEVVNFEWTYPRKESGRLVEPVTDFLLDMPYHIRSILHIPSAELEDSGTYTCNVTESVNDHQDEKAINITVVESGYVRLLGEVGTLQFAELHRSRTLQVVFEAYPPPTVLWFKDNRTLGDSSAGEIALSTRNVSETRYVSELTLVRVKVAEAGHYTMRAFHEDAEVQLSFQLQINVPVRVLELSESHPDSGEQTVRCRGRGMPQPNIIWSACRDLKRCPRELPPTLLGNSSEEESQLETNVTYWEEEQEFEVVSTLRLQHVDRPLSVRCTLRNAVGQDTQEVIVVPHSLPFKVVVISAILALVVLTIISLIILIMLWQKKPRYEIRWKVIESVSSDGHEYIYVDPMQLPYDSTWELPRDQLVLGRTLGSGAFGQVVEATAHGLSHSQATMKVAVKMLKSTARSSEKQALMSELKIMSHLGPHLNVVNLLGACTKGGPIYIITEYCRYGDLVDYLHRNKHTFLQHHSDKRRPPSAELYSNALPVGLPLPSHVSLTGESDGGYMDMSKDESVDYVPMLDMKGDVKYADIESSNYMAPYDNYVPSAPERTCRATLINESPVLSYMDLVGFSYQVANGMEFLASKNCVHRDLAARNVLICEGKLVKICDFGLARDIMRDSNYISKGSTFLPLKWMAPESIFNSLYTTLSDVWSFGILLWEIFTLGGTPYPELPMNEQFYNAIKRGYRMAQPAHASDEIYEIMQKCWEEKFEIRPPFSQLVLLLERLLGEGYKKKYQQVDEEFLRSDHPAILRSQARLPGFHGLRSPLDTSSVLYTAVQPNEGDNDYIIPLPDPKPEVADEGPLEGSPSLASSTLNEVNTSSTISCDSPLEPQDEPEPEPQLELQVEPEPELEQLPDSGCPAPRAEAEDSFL
Sequence of Fibroblast growth factor receptor 1 (Homo sapiens) (P11362 22-822 limits assumed): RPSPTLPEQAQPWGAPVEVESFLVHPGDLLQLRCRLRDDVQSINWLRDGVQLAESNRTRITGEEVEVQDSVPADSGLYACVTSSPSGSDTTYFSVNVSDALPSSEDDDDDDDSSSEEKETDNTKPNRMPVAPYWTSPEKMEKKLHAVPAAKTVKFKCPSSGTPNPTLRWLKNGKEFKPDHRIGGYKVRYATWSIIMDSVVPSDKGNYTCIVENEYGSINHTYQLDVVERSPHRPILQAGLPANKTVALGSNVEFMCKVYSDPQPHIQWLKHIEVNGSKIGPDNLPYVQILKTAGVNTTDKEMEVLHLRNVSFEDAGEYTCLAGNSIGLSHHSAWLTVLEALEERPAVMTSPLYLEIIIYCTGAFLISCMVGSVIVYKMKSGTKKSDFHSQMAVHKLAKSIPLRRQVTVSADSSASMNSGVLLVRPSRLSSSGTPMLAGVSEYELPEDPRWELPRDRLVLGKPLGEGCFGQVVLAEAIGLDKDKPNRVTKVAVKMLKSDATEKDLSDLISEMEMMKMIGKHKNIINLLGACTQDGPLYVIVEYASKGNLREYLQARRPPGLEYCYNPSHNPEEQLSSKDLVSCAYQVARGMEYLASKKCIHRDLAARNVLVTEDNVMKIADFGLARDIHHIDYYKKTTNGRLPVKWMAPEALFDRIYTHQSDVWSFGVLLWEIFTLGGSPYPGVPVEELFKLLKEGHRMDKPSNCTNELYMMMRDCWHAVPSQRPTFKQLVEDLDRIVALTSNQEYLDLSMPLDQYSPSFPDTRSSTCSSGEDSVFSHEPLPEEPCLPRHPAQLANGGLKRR
Sequence of Fibroblast growth factor receptor 2 (Homo sapiens) (P21802 22-821 limits assumed): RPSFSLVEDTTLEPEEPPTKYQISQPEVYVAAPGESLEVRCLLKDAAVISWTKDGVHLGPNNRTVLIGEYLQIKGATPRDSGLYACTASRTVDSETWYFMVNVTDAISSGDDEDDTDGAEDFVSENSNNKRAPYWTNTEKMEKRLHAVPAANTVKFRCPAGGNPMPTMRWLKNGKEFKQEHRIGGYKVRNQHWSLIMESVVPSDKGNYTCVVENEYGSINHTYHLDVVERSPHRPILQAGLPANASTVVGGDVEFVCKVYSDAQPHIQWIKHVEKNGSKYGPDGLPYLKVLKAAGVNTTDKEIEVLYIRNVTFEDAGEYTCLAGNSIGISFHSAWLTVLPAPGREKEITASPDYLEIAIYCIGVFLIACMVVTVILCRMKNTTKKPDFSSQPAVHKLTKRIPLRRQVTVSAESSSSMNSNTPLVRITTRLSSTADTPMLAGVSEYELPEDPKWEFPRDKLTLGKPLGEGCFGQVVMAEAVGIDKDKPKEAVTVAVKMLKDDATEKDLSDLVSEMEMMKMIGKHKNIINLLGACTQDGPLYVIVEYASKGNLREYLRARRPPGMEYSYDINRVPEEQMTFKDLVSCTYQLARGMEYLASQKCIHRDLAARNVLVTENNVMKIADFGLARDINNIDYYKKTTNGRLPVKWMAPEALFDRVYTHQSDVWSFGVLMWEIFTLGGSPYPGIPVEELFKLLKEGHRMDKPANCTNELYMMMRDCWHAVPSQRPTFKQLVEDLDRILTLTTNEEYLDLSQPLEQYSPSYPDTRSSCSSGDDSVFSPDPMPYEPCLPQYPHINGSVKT
Sequence of Vascular endothelial growth factor receptor 3 (Homo sapiens) (P35916 whole entry, the tested form may be a part): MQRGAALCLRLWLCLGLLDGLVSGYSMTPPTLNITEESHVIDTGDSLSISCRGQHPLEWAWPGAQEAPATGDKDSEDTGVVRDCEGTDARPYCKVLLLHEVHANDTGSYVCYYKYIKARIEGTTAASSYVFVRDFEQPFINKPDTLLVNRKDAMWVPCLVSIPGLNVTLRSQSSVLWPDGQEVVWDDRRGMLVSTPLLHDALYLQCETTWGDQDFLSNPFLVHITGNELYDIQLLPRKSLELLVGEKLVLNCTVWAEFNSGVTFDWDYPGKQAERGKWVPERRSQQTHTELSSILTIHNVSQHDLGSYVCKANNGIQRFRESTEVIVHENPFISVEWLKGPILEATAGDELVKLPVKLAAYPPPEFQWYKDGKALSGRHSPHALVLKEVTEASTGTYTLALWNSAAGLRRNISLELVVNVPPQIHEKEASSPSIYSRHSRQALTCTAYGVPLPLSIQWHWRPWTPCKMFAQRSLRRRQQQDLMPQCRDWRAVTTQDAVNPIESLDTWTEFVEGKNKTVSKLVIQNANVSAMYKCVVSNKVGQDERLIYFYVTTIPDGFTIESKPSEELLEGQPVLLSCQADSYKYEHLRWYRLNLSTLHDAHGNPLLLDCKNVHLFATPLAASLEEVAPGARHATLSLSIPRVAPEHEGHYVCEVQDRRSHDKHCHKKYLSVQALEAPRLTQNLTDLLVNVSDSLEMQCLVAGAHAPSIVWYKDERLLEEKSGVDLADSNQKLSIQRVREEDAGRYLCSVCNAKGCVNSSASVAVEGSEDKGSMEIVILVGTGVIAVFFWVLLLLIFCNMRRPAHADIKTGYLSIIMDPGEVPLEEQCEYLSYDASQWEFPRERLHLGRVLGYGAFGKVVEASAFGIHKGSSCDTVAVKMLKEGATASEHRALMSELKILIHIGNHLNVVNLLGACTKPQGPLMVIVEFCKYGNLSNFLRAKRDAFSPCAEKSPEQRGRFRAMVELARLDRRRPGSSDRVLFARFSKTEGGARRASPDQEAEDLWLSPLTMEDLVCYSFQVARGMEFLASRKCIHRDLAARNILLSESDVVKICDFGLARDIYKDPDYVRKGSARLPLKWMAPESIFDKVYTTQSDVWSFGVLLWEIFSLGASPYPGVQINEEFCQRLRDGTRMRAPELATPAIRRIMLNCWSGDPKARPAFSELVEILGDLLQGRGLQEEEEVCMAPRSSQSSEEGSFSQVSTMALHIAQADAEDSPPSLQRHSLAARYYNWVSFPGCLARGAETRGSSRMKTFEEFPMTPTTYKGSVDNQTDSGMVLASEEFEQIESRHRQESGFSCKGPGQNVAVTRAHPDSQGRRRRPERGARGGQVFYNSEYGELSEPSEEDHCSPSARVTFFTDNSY

By pIC50 is commonly meant the negative decadic logarithm of the IC50, by convention in mol/L. High values mean a low IC50, low ones a high IC50. Regarding `N#Cc1cnc(Nc2ccccn2)s1`, the Selectivity is 107 in test [1]; 214 in test [3]; 68 in test [4]; 678 in test [5]; 30 in test [6]; 4 in test [7]. This molecule showed a pIC50 in test [2] of 7.44.

As for `COc1ccnc(Nc2ncc(-c3ccccc3)s2)c1`, in test [2], the negative-log IC50 (pIC50) is 7.96.

As for `Brc1cnc(Nc2ccccn2)s1`, the pIC50 in test [2] was 7.15.

Consider `O=C(Nc1ncc(-c2ccccc2)s1)c1ccccc1`, for which the Selectivity in test [1] is 14; in test [3], 72; in test [5], above 240; in test [6] it was 4; in test [7], 1.

For the molecule `Cc1cccc(Nc2ncc(-c3ccccc3)s2)n1`, the Selectivity in test [1] was 210; in test [3], 600; in test [4], 0.3; in test [5], 760; in test [6] it was 8; in test [7] it was 3. In test [2], the negative logarithm of the IC50 (pIC50) is 8.00.

On to `Cc1cnc(Nc2ccccn2)s1`, for which the negative logarithm of the IC50 (pIC50) in test [2] is 5.89.

Take `COc1cccc(Nc2ncc(-c3ccccc3)s2)n1`: the negative-log IC50 (pIC50) in test [2] was 8.52.

For `Cc1ccc(Nc2ncc(-c3ccccc3)s2)nc1`, the Selectivity in test [1] worked out at 70; in test [3], 220; in test [4], 0.3; in test [5] it was 570; in test [6] it was 5; in test [7], 1. Further, the pIC50 in test [2] was 7.72.

`Clc1cnc(Nc2ccccn2)s1` had a pIC50 in test [2] of 6.71.

`Cc1cccnc1Nc1ncc(-c2ccccc2)s1`: the Selectivity worked out at 200 in test [1]; 820 in test [3]; 1 in test [4]; 1200 in test [5]; 16 in test [6]; 3 in test [7]. The same molecule gave a pIC50 in test [2] of 7.89.

Regarding `Cc1ccnc(Nc2ncc(-c3ccccc3)s2)c1`, the Selectivity in test [1] was found to be 50; in test [3], 220; in test [4] it was 0.5; in test [5], 190; in test [6] it was 7; in test [7], 2. Further, in test [2], the pIC50 was 8.22.

In test [2], `c1ccc(-c2cnc(Nc3ccncc3)s2)cc1` gave a pIC50 of 6.59.

`c1ccc(-c2cnc(Nc3ccccn3)o2)cc1` had a pIC50 in test [2] of 5.73.

Molecule `COc1cccnc1Nc1ncc(-c2ccccc2)s1` gave a pIC50 in test [2] of 7.34.

Take `CCCCN(C)c1ccc(/N=N/c2ncc([N+](=O)[O-])s2)c(C)c1`: the Selectivity in test [1] was above 130; in test [3], above 130; in test [5] it was above 130; in test [6] it was above 130; in test [7], 1.

For the molecule `Brc1cccc(Nc2ncc(-c3ccccc3)s2)n1`, the Selectivity was determined as 400 in test [1]; 1620 in test [3]; 0.3 in test [4]; 840 in test [5]; 12 in test [6]; 3 in test [7]. The molecule also showed a pIC50 in test [2] of 7.85.

Regarding `Clc1ccc(Nc2ncc(-c3ccccc3)s2)nc1`, the Selectivity in test [1] is above 580; in test [3] it was above 580; in test [4], 0.1; in test [5] it was above 580; in test [6], 6; in test [7] it was 1. The same molecule had a negative-log IC50 (pIC50) in test [2] of 7.46.

On to `c1ccc(Nc2ncc(-c3ccccc3)s2)cc1`, for which the negative-log IC50 (pIC50) in test [2] was 6.91.

Values taken from ChEMBL document CHEMBL1146769, “The discovery of N-(1,3-thiazol-2-yl)pyridin-2-amines as potent inhibitors of KDR kinase” (Bioorg Med Chem Lett, 2004).
